Measured values reported in patent US9234004B2, “Antimicrobial peptides” (Agency for Science, Technology and Research, priority 2010, dated 2016).
≈ marks a conversion by molar mass, not a printed value. Read-outs that look alike come from different tables or passages of the source. Bridge positions count the residues as written; N and C are the ends. Ends that are not written are not given here. Peptide text beside a SMILES is read from it. I, II: the chains in the order shown.

How the values were obtained:
Type in all cases: cell-based
[1] = test system: human red blood cells (hRBC)
Protocol: The peptides' hemolysis was tested in human red blood cells (hRBC). hRBCs were diluted 25× to achieve 4% concentration (v %) in phosphate-buffered saline (PBS, pH 7.4). Upon dilution, the blood suspension was treated with equal volume of (LLKK)4 (SEQ ID NO: 8), [(LLKK)2]2, or [(LLKK)2]4 peptide solution in PBS to reach final peptide concentrations of 0-500 mg/L. The treatment was performed inside a 37° C. incubator for 1 hour, after which the mixture was centrifuged at 1000 g for 5 mins to remove the non-hemolysed blood cells. The supernatant (100 μL) was transferred into a 96-well plate, and measured spectrophotometrically for its absorbance at 567 nm using a microplate reader (TECAN, Switzerland)^[5]. PBS and 0.1% Triton-X were used as negative and positive controls respectively. Hemolysis level was calculated according to the following formula: % Hemolytic=(Absorbance for Peptide treatment−Absorbance for PBS treatment)/(Absorbance for Triton treatment−Absorbance for PBS treatment)×100% Minimum Inhibitory Concentration (MIC)

[2] = test system: E. aerogenes (ATCC No. 13048); conditions: ATCC No. 13048, 18 h
Protocol: (§1) Microbes were re-constituted from their dried pellets obtained from ATCC according to the recommended protocols. Bacterial culture was done in tryptic soy broth at 37° C., while yeast was cultured in yeast mould broth at room temperature, under constant shaking at 100 rpm. Briefly, microbial suspension was first adjusted to contain ˜3×10^8 CFU/mL, by adjusting its 600 nm absorbance to be equivalent to that of the standard McFarland 1 reference. The suspension was then diluted to contain ˜3×10^6 CFU/mL. Under this condition, the O.D. reading was approximately 0.05-0.06 for bacterial cultures, and 0.03-0.04 for yeast cultures. Equal volume (100 μL) of the microbial suspension and the peptide solutions was mixed in a 96-well plate, and the microbial growth was monitored by measuring the O.D. reading at 0 and 18 hours.

[3] = test system: C. albicans (ATCC No. 10231); conditions: ATCC No. 10231, 18 h
Protocol: as §1

[4] = test system: P. aeruginosa (ATCC No. 9027); conditions: ATCC No. 9027, 18 h
Protocol: as §1

[5] = test system: B. subtilis (ATCC No. 23857); conditions: ATCC No. 23857, 18 h
Protocol: as §1

[6] = test system: E. coli (ATCC No. 25922); conditions: ATCC No. 25922, 18 h
Protocol: as §1

[7] = test system: S. aureus (ATCC No. 29737); conditions: ATCC No. 29737, 18 h
Protocol: as §1

[8] = test system: S. aureus; conditions: 2
Protocol: (§2) E. coli and S. aureus were treated at MIC and 2×MIC concentrations with [(LLKK)2]4 peptide. At various time periods (0, 0.5, 1, 2, 5, 8 and 18 hours), microbial suspensions were diluted at 3 different dilutions and plated on 1.5% LB agar plates. Microbial colonies were formed and counted after 24 hours of incubation (for bacteria) or 48 hours of incubation (for yeast).

[9] = test system: E. coli; conditions: 2
Protocol: as §2

[10] = test system: B. subtilis; conditions: 8 h
Protocol: (§3) Microbial cells were firstly re-constituted from its lyophilized form according to the manufacturer's protocol. Bacterial cells were cultured in tryptic soy broth (TSB) at 37° C., and yeast cells were cultured in yeast mould broth (YMB) at room temperature under constant shaking at 100 rpm. Broth containing an antimicrobial peptide was prepared at various concentrations (0.98, 1.95, 3.90, 7.81, 15.63, 31.25, 62.5, 125, 250, 500 mg/L) and transferred into a 96-well tissue culture plate (100 μL/well). Microorganism was first inoculated overnight to enter its log growth-phase. An equal volume of microorganism solution (100 μL) was added into each well of the 96-well plate containing the antimicrobial peptide. Prior to this mixing, the concentration of microorganism solution was adjusted to give an initial optical density (O.D.) reading of 0.1-0.2 at 600 nm wavelength. The growth of the microorganism was observed upon introducing the antimicrobial peptide by measuring the O.D. readings at 2 hour intervals for up to 8 hours. […] Broth containing microbial cells was used as the negative control, and each test was carried out in 6 replicates. The standard deviations of the 6 readings were reported as the error bars.

[11] = test system: C. albicans; conditions: 8 h
Protocol: as §3

[12] = test system: E. coli; conditions: 8 h
Protocol: as §3

[13] = test system: rat red blood cells; assay: Hemolytic activity test
Protocol: Peptides were obtained from GL Biochem (Shanghai, China), and their fidelity was further confirmed via matrix-assisted laser desorption/ionization time-of-flight mass spectroscopy (MALDI-TOF MS, Model Autoflex II, Bruker Daltonics Inc., U.S.A.), using α-cyano-4-hydroxycinnamic acid as matrix. The purity of the peptides was also tested to be more than 95% with analytical reverse phase (RP)-HPLC. α-Cyano-4-hydroxycinnamic acid (HCCA) was purchased from Sigma-Aldrich (Singapore) and used in saturated acetonitrile/water (1:1 volume ratio) after being re-crystallized. Sodium dodecyl sulphate (SDS) micelle solution (10% w/v in DI water) was obtained from 1st Base (Malaysia) and used upon dilution to the desirable concentration range. Tryptic soy broth (TSB) powder and yeast mould broth (YMB) powder were purchased from BD Diagnostics (Singapore) and used to prepare the microbial broths according to the manufacturer's instructions. Phosphate-buffered saline solution at 10× concentration was purchased from 1st Base (Malaysia) and used after dilution to the desired concentration. Ethanol (analytical grade, 99%) and glutaraldehyde (synthetic grade, 50% in H2O) were purchased from Sigma Aldrich (Singapore) and used as received. […] Red blood cells used in the experiments were obtained from rats maintained at the Animal Handling Units of the Biomedical Research Centers (Singapore). Human peripheral blood mononuclear cells (PBMCs) were extracted from healthy blood donors and maintained with RPMI medium supplemented with 10% lowendotoxin fetal bovine serum (FBS) and 1% penicillin-streptomycin. Granulocyte macrophage-colony stimulating factor (GM-CSF) and lipopolysaccharide were purchased from Sigma-Aldrich and used as received.
Fresh red blood cells were washed with PBS for three times, and were subjected to 25 times dilution with PBS to reach a concentration of approximately 4% (in volume) of the blood cells. The red blood cell suspension (100 μL) was placed into a 96-well cell culture plate and mixed with 100 μL of the antimicrobial peptide solution in PBS at concentrations of 0.98, 1.95, 3.90, 7.81, 15.63, 31.25, 62.5, 125, 250, 500 mg/L. The mixture was then incubated at 37° C. for 1 hour to allow for the hemolysis process to take place. At the end of incubation time, the non-hemolysed red blood cells were separated by centrifugation at 13000 g for 5 minutes. Aliquots (100 μL) of the supernatant were transferred into a new 96-well plate, and the hemoglobin release was measured by checking the UV-absorbance of the samples at 576 nm using a microplate reader (TECAN, Switzerland). Two controls were provided in this assay: an untreated red blood cell suspension in PBS was used as the negative control, and a solution containing red blood cells lysed with 0.1% Triton-X was used as the positive control. Each assay was performed in 6 replicates, and the data were expressed as means and standard deviations of the 6 replicates. Percentage of hemolysis was calculated using the following formula: Hemolysis (%)=[(O.D.576 nm of the treated sample−O.D.576 nm of the negative control)/(O.D.576 nm of positive control−O.D.576 nm of negative control)]×100%. Field Emission-Scanning Electron Microscopy (FE-SEM) Analysis of Bacterial Cells

Molecule	hemolysis at 500 mg/L ([1]; red cells of human, 500)	HC50 ([1]; red cells of human, 1 h)	MIC E. aerogenes [2]	MIC C. albicans [3]	MIC P. aeruginosa [4]	MIC B. subtilis [5]	MIC E. coli [6]	MIC S. aureus [7]	cells killed after 1 hour ([8]; 1 h)	cells killed after 8 hours ([8]; 8 h)	cells killed after 1 hour ([9]; 1 h)	cells killed after 8 hours ([9]; 8 h)	hemolytic activity towards human red blood cells, in words [1]	MIC B. subtilis [10]	MIC C. albicans [11]	MIC E. coli [12]	hemolysis at the MIC against B. subtilis [13]	HC50 (50% hemolytic concentration) ([13]; red cells of rat, 1 h)	HC50 [1]
CC(C)C[C@H](NC(=O)[C@H](CC(C)C)NC(=O)[C@H](CCCCN)NC(=O)[C@H](CCCCN)NC(=O)[C@H](CC(C)C)NC(=O)[C@@H](N)CC(C)C)C(=O)N[C@@H](CCCCN)C(=O)N[C@@H](CCCCN)C(=O)NCCCC[C@H](NC(=O)[C@H](CCCCN)NC(=O)[C@H](CCCCN)NC(=O)[C@H](CC(C)C)NC(=O)[C@H](CC(C)C)NC(=O)[C@H](CCCCN)NC(=O)[C@H](CCCCN)NC(=O)[C@H](CC(C)C)NC(=O)[C@@H](N)CC(C)C)C(=O)N[C@@H](CS)C(N)=O [[(LLKK)2]2, [LLKKLLKK]2K*C—CONH2] (I: H-LLKKLLKKKC-NH2 / II: H-LLKKLLKK; amide I:9-II:C)	~18%	>500 mg/L	125 µg/mL (≈ 57.4 µM)	63 µg/mL (≈ 28.9 µM)	8 µg/mL (≈ 3.67 µM)	8 µg/mL (≈ 3.67 µM)	31 µg/mL (≈ 14.2 µM)	>500 µg/mL	–	–	–	–	–	–	–	–	–	–	–
CC(C)C[C@H](NC(=O)[C@H](CC(C)C)NC(=O)[C@H](CCCCN)NC(=O)[C@H](CCCCN)NC(=O)[C@H](CC(C)C)NC(=O)[C@@H](N)CC(C)C)C(=O)N[C@@H](CCCCN)C(=O)N[C@@H](CCCCN)C(=O)NCCCC[C@H](NC(=O)[C@H](CCCCN)NC(=O)[C@H](CCCCN)NC(=O)[C@H](CC(C)C)NC(=O)[C@H](CC(C)C)NC(=O)[C@H](CCCCN)NC(=O)[C@H](CCCCN)NC(=O)[C@H](CC(C)C)NC(=O)[C@@H](N)CC(C)C)C(=O)N[C@@H](CSSC[C@H](NC(=O)[C@H](CCCCNC(=O)[C@H](CCCCN)NC(=O)[C@H](CCCCN)NC(=O)[C@H](CC(C)C)NC(=O)[C@H](CC(C)C)NC(=O)[C@H](CCCCN)NC(=O)[C@H](CCCCN)NC(=O)[C@H](CC(C)C)NC(=O)[C@@H](N)CC(C)C)NC(=O)[C@H](CCCCN)NC(=O)[C@H](CCCCN)NC(=O)[C@H](CC(C)C)NC(=O)[C@H](CC(C)C)NC(=O)[C@H](CCCCN)NC(=O)[C@H](CCCCN)NC(=O)[C@H](CC(C)C)NC(=O)[C@@H](N)CC(C)C)C(N)=O)C(N)=O [[(LLKK)2]4, [LLKKLLKK]2K*C—S—S—CK*[KKLLKKLL]2] (I: H-LLKKLLKKKC-NH2 / II: H-LLKKLLKKKC-NH2 / III: H-LLKKLLKK / IV: H-LLKKLLKK; amide I:9-III:C, II:9-IV:C; disulfide I:10-II:10)	–	>500 mg/L	63 µg/mL (≈ 14.5 µM)	125 µg/mL (≈ 28.7 µM)	8 µg/mL (≈ 1.84 µM)	16 µg/mL (≈ 3.67 µM)	–	400 µg/mL (≈ 91.8 µM)	more than 50%	more than 99.99%	more than 50%	more than 99.99%	only hemolytic at an acceptable level	–	–	–	–	–	–
LLKKLLKKLLKKLLKK-NH2 [(LLKK)4, LLKKLLKKLLKKLLKK-NH2]	–	–	25 µg/mL	>50 µg/mL	6.3 µg/mL	6.3 µg/mL	12.5 µg/mL	>50 µg/mL	–	–	–	–	significant hemolysis at concentrations around its MICs	10 µg/mL	>50 µg/mL	>50 µg/mL	~30%	~24 mg/L	~37.5 mg/L
